{
  "source": "patent US9200286B2",
  "about": "(THE RESEARCH FOUNDATION FOR THE STATE UNIVERSITY OF NEW YORK, priority 2010, dated 2015)",
  "molecules": {"B1": {"name": "AF1422: RNA aptamer, SEQ ID NO: 1, most enriched SELEX sequence binding closed-channel GluA2Qflip (nucleic acid)", "chain": "GGGAGAAUUCAACUGCCAUCUAGGCAGAAGUGUAAUAGCCAACGGUGCCAGUCCGAAACGGAUCGUUAGAGCAUCAGUACUACAAGCUUCUGGACUCGGU", "modifications": "listed as RNA, chemistry not given here"}, "B2": {"name": "AF78: truncated sequence of AF1422, SEQ ID NO: 3, lacking the 5' stem-loop (nucleic acid)", "chain": "GGGAGCCAGAAGUGUAAUAGCCAACGGUGCCAGUCCGAAACGGAUCGUUAGAGCAUCAGUACUACAAGCUUCUGGACU", "modifications": "listed as RNA, chemistry not fully specified"}},
  "key": {"[1]": {"biological_target": "GluA2Qflip receptor (Rattus norvegicus, UniProt P19491)", "sequence (P19491 22-883 isoform P19491-2 limits assumed)": "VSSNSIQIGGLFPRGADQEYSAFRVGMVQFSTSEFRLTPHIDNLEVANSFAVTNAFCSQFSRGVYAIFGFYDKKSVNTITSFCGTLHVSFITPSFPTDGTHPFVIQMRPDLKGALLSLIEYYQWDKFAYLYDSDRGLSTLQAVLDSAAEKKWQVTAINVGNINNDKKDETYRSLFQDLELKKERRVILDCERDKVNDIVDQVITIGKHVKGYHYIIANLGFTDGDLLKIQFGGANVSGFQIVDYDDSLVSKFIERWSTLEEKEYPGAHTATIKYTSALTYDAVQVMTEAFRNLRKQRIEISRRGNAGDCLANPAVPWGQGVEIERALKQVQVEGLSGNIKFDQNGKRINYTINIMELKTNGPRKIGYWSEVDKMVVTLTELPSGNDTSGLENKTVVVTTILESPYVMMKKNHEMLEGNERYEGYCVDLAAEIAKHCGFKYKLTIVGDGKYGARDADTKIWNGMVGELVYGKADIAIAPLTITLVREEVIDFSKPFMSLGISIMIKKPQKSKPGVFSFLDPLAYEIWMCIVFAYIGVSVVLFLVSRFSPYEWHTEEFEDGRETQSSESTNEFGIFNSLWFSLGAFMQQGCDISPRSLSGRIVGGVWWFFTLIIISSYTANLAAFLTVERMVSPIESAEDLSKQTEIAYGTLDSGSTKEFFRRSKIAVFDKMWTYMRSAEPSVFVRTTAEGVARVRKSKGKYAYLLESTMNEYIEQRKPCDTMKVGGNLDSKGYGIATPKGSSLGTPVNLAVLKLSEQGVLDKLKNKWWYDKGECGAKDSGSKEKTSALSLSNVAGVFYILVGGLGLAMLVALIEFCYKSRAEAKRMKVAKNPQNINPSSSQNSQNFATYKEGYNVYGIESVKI", "assay": "Homologous competition binding assay (cold vs hot aptamer)", "settings": "for binding to the receptor in the presence of NBQX: competitive inhibitor, data not shown; for Kd: triplicate data sets", "description": "(§1) In fact, in a homologous competition binding experiment (42) in which the non-radiolabeled aptamer (or cold aptamer) was used to compete against the same, but radiolabeled, aptamer (or hot aptamer), AF44 bound to not only the closed-channel conformation (i.e., the unliganded, closed-channel receptor form) but also the open-channel conformation (FIG. 10). […] The binding results were consistent with noncompetitive sites, because these sites were supposed to be accessible through both the closed- and the open-channel conformations. […] These sites were noncompetitive type because binding to the receptor by either AF44 or AF42 or the full length AF1422 was unaffected in the presence of NBQX, a classic competitive inhibitor.\nas §1, with “inhibitor (data not shown).” for “inhibitor.”"}, "[2]": {"biological_target": "GluA2Qflip AMPA receptor (Rattus norvegicus, UniProt P19491)", "sequence (P19491 22-883 isoform P19491-2 limits assumed)": "as above", "settings": "for inhibition by A/A(I), ratio of whole-cell current amplitude in absence and presence of aptamer: 1 μM aptamer (FIG. 3, FIG. 5); for Ki: from A/A(I) vs inhibitor concentration", "method": "The putative inhibitory property of the four sequences was then functionally tested by the use of whole-cell current recording with GluA2Qflip expressed in HEK-293 cells. […] The current was recorded at −60 mV, pH 7.4 and 22° C. with the same HEK-293 cells expressing GluA2Qflip that were used for selection.\nThe procedure for whole-cell current recording used to assay putative aptamers is known in the art. For the present invention, all recordings were at −60 mV and 22° C. The recording electrode was filled with the buffer (in mM): 110 CsF, 30 CsCl, 4 NaCl, 0.5 CaCl2, 5 EGTA, and 10 HEPES (pH 7.4 adjusted by CsOH). The extracellular buffer composition used is described supra. All other buffers used were previously described. The whole-cell current was recorded using an Axopatch 200B amplifier at a cutoff frequency of 2-20 kHz by a built-in, four-pole Bessel filter and digitized at 5-50 kHz sampling frequency using a Digidata 1322A (Molecular Devices). pClamp 8 (Molecular Devices, Sunnyvale Calif.) was used for data acquisition.\nUsing whole-cell recording, the putative inhibitory property for each aptamer was tested with HEK 293 cells expressing GluA2Qflip receptors and expressed as the ratio of the whole-cell current amplitude in the absence and presence of an aptamer, that is, A/A(I). The current was recorded at −60 mV, pH 7.4 and 22° C. with the same HEK-293 cell expressing GluA2Qflip.\nSelected RNA sequences were assayed using whole-cell current recording with GluA2Qflip. […] The third round of the library or “pool 3” at 1 μM was used as a control. The ‘*’ indicates P≦0.05 from the two-tailed Student's t test (H0: μ=μ0=1, 1 being the theoretical value of no inhibition, marked as the dashed line).\nThe ratio of the whole-cell current amplitude in the absence and presence of a putative aptamer or A/A(I) as a function of aptamer concentration was used to independently measure inhibition constants (29), as illustrated in Equations 7a and 7b (29). These equations were derived based on the same general mechanism of channel opening described earlier. KI, app is the apparent inhibition constant for the inhibitor;\nThus the inhibition constant for the closed-channel conformation or state was determined from A/A(I) vs. inhibitor concentration by Equations 7a and 7b. Likewise, at a saturating ligand concentration (i.e., L>>K1), the majority of the receptors were in the open-channel state. Thus the inhibition constant for the open-channel state was determined.\nThe original cDNAs in pBlueScript encoding rat GluA1, 2 and 3 AMPA receptors and GluK2 kainate receptor were kindly provided by Steve Heinemann. The GluA4 DNA plasmid was kindly provided by Peter Seeburg. The GluK1 plasmid was kindly provided by Geoffrey Swanson. The cDNAs of all three NMDA receptor subunits were gifts from John Woodward. All DNA plasmids were propagated using Escherichia coli host (DH5α) and purified using QIAGEN DNA purification kits.\nAll of the receptors were transiently expressed in HEK-2935 cell. HEK-293S cells were maintained in Dulbecco's modified Eagle's medium (DMEM) supplemented with 10% fetal bovine serum and 1% penicillin in a 37° C., 5% CO2, humidified incubator. Receptors were transiently transfected by using calcium phosphate or lipofectamine 2000 (Invitrogen). The DNA plasmids encoding green fluorescent protein (GFP) and T-antigen (TAg) were cotransfected in HEK-293S cells. GFP was used as a transfection marker for cell recording, and TAg was cotransfected to potentiate the receptor expression at the single-cell level (51). Transfected cells were allowed to grow for 48 hour before they were used for recording.\nThe procedure for whole-cell current recording to assay the inhibitory property of an RNA aptamer is known to those of skill in the art and has been previously described (47). […] The extracellular buffer composition is described above (see “Receptor Preparation”)."}, "[3]": {"biological_target": "GluA1flip (Rattus norvegicus, UniProt P19490)", "sequence (P19490 19-907 isoform P19490-2 limits assumed)": "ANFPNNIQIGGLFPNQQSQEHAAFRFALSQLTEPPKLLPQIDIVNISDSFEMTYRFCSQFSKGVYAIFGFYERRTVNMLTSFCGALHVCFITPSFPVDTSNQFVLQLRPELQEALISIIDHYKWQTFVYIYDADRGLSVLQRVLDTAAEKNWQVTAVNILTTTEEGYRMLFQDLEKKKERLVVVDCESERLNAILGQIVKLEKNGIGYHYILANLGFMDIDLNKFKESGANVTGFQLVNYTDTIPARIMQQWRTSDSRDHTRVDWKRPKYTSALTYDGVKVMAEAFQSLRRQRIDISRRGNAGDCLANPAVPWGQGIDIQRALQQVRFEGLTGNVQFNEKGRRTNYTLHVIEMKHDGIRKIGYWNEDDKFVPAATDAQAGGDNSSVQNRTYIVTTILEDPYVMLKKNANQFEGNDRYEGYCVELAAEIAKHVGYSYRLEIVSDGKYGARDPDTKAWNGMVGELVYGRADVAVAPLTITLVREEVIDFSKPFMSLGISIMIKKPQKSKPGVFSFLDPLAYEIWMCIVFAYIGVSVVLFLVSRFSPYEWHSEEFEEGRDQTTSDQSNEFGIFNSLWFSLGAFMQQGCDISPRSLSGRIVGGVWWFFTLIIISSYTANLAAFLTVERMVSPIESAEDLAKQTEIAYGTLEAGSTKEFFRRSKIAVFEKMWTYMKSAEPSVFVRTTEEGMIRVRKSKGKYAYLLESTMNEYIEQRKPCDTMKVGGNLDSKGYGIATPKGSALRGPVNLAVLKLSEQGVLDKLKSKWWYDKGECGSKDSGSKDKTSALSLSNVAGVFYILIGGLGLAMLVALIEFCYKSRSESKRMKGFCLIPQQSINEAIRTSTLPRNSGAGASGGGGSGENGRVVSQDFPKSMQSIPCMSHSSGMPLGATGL", "assay": "Subunit selectivity, whole-cell recording, GluA1", "assay_type": "cell-based", "settings": "closed- and open-channel glutamate concentrations", "method": "The subunit selectivity of AF44/AF42 was assessed with individual subunits of AMPA, kainate and NMDA receptors expressed in HEK-293 cells, and was represented by A/A(I) value collected from whole-cell recording (FIG. 8A).\nAll of the receptors were transiently expressed in HEK-2935 cell. HEK-293S cells were maintained in Dulbecco's modified Eagle's medium (DMEM) supplemented with 10% fetal bovine serum and 1% penicillin in a 37° C., 5% CO2, humidified incubator. Receptors were transiently transfected by using calcium phosphate or lipofectamine 2000 (Invitrogen). The DNA plasmids encoding green fluorescent protein (GFP) and T-antigen (TAg) were cotransfected in HEK-293S cells. GFP was used as a transfection marker for cell recording, and TAg was cotransfected to potentiate the receptor expression at the single-cell level (51). […]\nFor recording of the NMDA channels, the intracellular solution contained (in mM) 140 CsCl, 1 MgCl2, 0.1 EGTA, and 10 HEPES (pH 7.2 adjusted by Mg(OH)2), while the extracellular solution contained (in mM) 135 NaCl, 5.4 KCl, 1.8 CaCl2, 10 glucose and 5 HEPES (pH 7.2 adjusted by NaOH). […] The whole-cell current was recorded using an Axopatch-200B amplifier at a cutoff frequency of 2-20 kHz by a built-in, eight-pole Bessel filter and digitized at 5-50 kHz sampling frequency using a Digidata 1322A from Axon Instruments (Molecular Devices, Sunnyvale, Calif.). […]"}, "[4]": {"settings": "open-channel GluA2Qflip, read-out: Kd, open-channel conformation"}, "[5]": {"settings": "unliganded, closed-channel GluA2Qflip, read-out: Kd, closed-channel conformation"}},
  "note": "Where two headings read alike, the source gives them in different places.",
  "data": [
    {"molecule": "AF44: 44-nucleotide RNA truncated from AF1422, G22 replaced with A22, SEQ ID NO: 4 (GGGAGAAUUCAACUGCCACGGAUAAUAGCCAAUACUACAACCGU; listed as RNA, chemistry not given here)", "values": [
      {"measurement": "binding to the receptor in the presence of NBQX", "setting": "[1]", "value": "unaffected"},
      {"measurement": "Kd", "setting": "[1]; [4]", "value": "48 ± 13", "unit": "nM"},
      {"measurement": "Kd", "setting": "[1]; [5]", "value": "44 ± 18", "unit": "nM"},
      {"measurement": "inhibition by A/A(I), ratio of whole-cell current amplitude in absence and presence of aptamer", "setting": "[2]; 100 μM glutamate", "value": "did not render any inhibition"}
    ]},
    {"molecule": "AF20: truncated AF1422 containing only the 5' stem loop, SEQ ID NO: 7 (GGGAGAAUUCAACUGCCAUC; listed as RNA, chemistry not fully specified)", "values": [
      {"measurement": "inhibition by A/A(I), ratio of whole-cell current amplitude in absence and presence of aptamer", "setting": "[2]; 100 μM glutamate", "value": "not sufficient to act either alone as an inhibitor or together with AF42 as an inhibitory pair"}
    ]},
    {"molecule": "AF38: AF42 with terminal loop removed, SEQ ID NO: 6 (GGGUCGUUAGAGCAUCAGUACACCAACGGUGCGAGCCC; listed as RNA, chemistry not fully specified)", "values": [
      {"measurement": "inhibition by A/A(I), ratio of whole-cell current amplitude in absence and presence of aptamer", "setting": "[2]; 100 μM glutamate", "value": "total loss of function"}
    ]},
    {"molecule": "CNC(=O)N1N=C(c2ccc(N)cc2)c2cc3c(cc2CC1C)OCO3", "note": "(stereo not shown) [BDZ-f, 1-(4-aminophenyl)-3-methylcarbamoyl-4-methyl-7,8-methylenedioxy-3,4-dihydro-5H-2,3-benzodiazepine, reference compound]", "values": [
      {"measurement": "effect on GluA1, A/A(I)", "setting": "[3]", "value": "inhibited"},
      {"measurement": "inhibition of the non-desensitizing phase of the receptor response", "setting": "[2]; 0.1 mM glutamate, AF44/AF42 up to 12.5 μM, BDZ-f up to 20 μM", "value": "uninhibited"},
      {"measurement": "inhibition of GluA2Qflip in the subunit selectivity test, A/A(I)", "setting": "[2]; FIG. 8A/8B, two glutamate concentrations", "value": "inhibited"},
      {"measurement": "Ki", "setting": "[2]; KI for the closed-channel conformation, 100 μM glutamate, -60 mV, 22 °C", "value": "3800 ± 400", "unit": "nM"},
      {"measurement": "Ki", "setting": "[2]; KI for the open-channel conformation, 3 mM glutamate", "value": "5400 ± 800", "unit": "nM"}
    ]},
    {"molecule": "AF42: 42-nucleotide RNA truncated from AF1422, SEQ ID NO: 5 (GGGAACGGUGCCAGUCCGAAACGGAUCGUUAGAGCAUCAGUA; listed as RNA, chemistry not given here)", "values": [
      {"measurement": "binding to the receptor in the presence of NBQX", "setting": "[1]", "value": "unaffected"},
      {"measurement": "Kd", "setting": "[1]; [4]", "value": "44 ± 11", "unit": "nM"},
      {"measurement": "Kd", "setting": "[1]; [5]", "value": "57 ± 21", "unit": "nM"},
      {"measurement": "inhibition by A/A(I), ratio of whole-cell current amplitude in absence and presence of aptamer", "setting": "[2]; 100 μM glutamate", "value": "did not render any inhibition"}
    ]},
    {"molecule": "B1", "values": [
      {"measurement": "binding to the receptor in the presence of NBQX", "setting": "[1]", "value": "unaffected"},
      {"measurement": "inhibition by A/A(I), ratio of whole-cell current amplitude in absence and presence of aptamer", "setting": "[2]; 100 μM glutamate", "value": "one of the most potent inhibitors"},
      {"measurement": "inhibition of closed-channel versus open-channel conformation", "setting": "[2]; low (100 μM) vs high (3 mM) glutamate", "value": "inhibited the closed-channel, preferentially over the open-channel"}
    ]},
    {"molecule": "B2", "values": [
      {"measurement": "inhibition by A/A(I), ratio of whole-cell current amplitude in absence and presence of aptamer", "setting": "[2]; 100 μM glutamate", "value": "non-inhibitory"}
    ]}
  ]
}
